# Measured values published in patent publication US4075332A (priority 1976, dated 1978).
# Read-outs that look alike come from different tables or passages of the source.
# Key:
# [1] = in vivo; conditions: rat, po
# [2] = tested on: Spider mites; assay: Mite, Systemic; format: in vivo, two-spotted mite; conditions: Tetranychus urticae
# Description: (§1) In the insecticidal and miticidal tests, the experimental compounds were tested as aqueous emulsions. These emulsions were prepared by dissolving the compound in acetone and dispersing it in distilled water with Triton X-100, an alkylaryl polyether alcohol derived by the reaction of i-octylphenol with ethylene oxide, to give spray emulsions containing the desired concentrations of the compound. These emulsions were then used in standard laboratory tests described below.
# Mite, Systemic: Bean plants infested with the two-spotted mites were treated by applying 20 ml. of the formulated test chemical to the soil.
# [3] = tested on: Southern army worm; conditions: in vivo
# [4] = tested on: Bean aphids; assay: whole plant or invertebrate; conditions: Aphis fabae, 48 h
# [5] = tested on: Bean aphids; assay: Aphid, Systemic; format: in vivo, bean aphid; conditions: Aphis fabae, 48 h
# Description: as §1
# Aphid, Systemic: Nasturtium plants infested with the bean aphid were treated by applying 20 ml. of the formulated test chemical to the soil. The degree of aphid control was rated after 2 days.
# [6] = tested on: House fly; assay: whole plant or invertebrate; conditions: Musca domestica, 48 h
# [7] = tested on: Mexican bean beetle; assay: whole plant or invertebrate; conditions: Epilachna varivestis
# [8] = tested on: Spider mites; assay: whole plant or invertebrate; conditions: Tetranychus urticae
# [9] = tested on: Southern army worm; assay: whole plant or invertebrate; conditions: Spodoptera eridania, read-out: Mortality, % - Southern ArmyWorm
# [10] = Thermal stability of products (GC / nmr observation); format: physicochemical; conditions: general statement
# Text: The corresponding primary alkyl derivatives such as the S'-n-propyl compound are stable under similar conditions.
# The ethyl sulfinylmethyl product was unstable at room temperature.
# [11] = tested on: Corn rootworm larvae; assay: whole plant or invertebrate; conditions: soil, 120 h
# [12] = tested on: Root-knot nematode; conditions: in vivo
# [13] = tested on: Bollworm larvae; assay: Bollworm test on cotton plants; format: in vivo; conditions: Helicoverpa zea, Table XIV, 0.5 lbs/acre
# Description: Bollworms: Bollworm larvae used in the present study were progeny of adult moths collected from light traps stationed in cotton fields. The larvae were reared on the Vanderzant-Adkisson Special Wheat Germ Diet for Insects. This diet was fortified with Vanderzant's Insect Vitamin Fortification. The diet and the vitamin fortification were obtaind from Nutritional Biochemicals Corporation, Cleveland, Ohio. The larvae were reared and tested in continuous illumination at 78±5° […]. Only third and fourth instar larvae which weighed between 25 and 60 mg. were used in the tests.
# Insecticidal sprays were made by the conventional low-volume (CLV) method. CLV sprays were applied through a 6X hollow-cone nozzle calibrated to deliver the equivalent of 3.5 ga./acre of the water/emulsion spray mixture. Sprays were applied to individual cotton plants grown in one gallon buckets. After treatment the plants were allowed to dry for 1 to 2 hours in the open air before being transported to a holding room. The larvae were placed on the treated leaf surfaces and held singly in small snap-on type plastic screen cages of about 11/2 inches in diameter. Untreated control groups were maintained for each test replicate so that treatment mortalities could be adjusted according to Abbott's formula. Treatments were replicated 3 times. Each replicate contained 20 larvae. […]
# [14] = read-out: Mortality Produced, % - Spider Mites Systemic
# [15] = read-out: Mortality Produced, % -
# [16] = read-out: Mortality Produced, % - Bean Aphids Systemic
# [17] = read-out: Mortality Produced, % - House Flies
# [18] = read-out: Mortality Produced, % - Mex.Bean Beetle
# [19] = 48 h, read-out: Mortality Produced, % - Spider Mites Contact
# [20] = read-out: Mortality, % - Spider Mites Systemic
# [21] = read-out: Mortality, % - Bean Aphids Contact
# [22] = read-out: Mortality, % - Mexican Bean Beetles
# [23] = 48 h, read-out: Mortality, % - Spider Mites Contact
# [24] = read-out: Mortality Produced, % - Bean Aphids Contact
# [25] = read-out: Mortality, % - Mexican Bean Beetle
# [26] = read-out: Mortality, % - Bean Aphids Systemic
# [27] = 24 h, read-out: Per Cent Mortality (24 hours After Application)
# [28] = 48 h, read-out: Per Cent Mortality (48 hours After Application)
# [29] = 72 h, read-out: Per Cent Mortality (72 hours After Application)
structure (smiles),measurement,setting,value
CCCSCCSP(=O)(OCC)SCCC (stereo not drawn) [2 (CIP)],LD50 at 336 h,[1],215 mg/kg
"CCCOP(=O)(SCCC)SCC(C)SC (stereo not drawn) [Example 43, O,S-Di-n-propyl S'-2-Methylthiopropyl dithiophosphate]",mortality at 50 ppm,[2]; [14],0%
same,mortality at 250 ppm,[2]; [14],100%
same,"Mortality Produced, % - S.Army Worm",[3]; southern armyworm,0%
same,mortality at 50 ppm,[4]; [15],80%
same,mortality at 250 ppm,[4]; [15],80%
same,mortality at 50 ppm,[5]; [16],0%
same,mortality at 250 ppm,[5]; [16],20%
same,mortality at 50 ppm,[6]; [17],70%
same,mortality at 250 ppm,[6]; [17],100%
same,mortality at 50 ppm,[7]; [18],80%
same,mortality at 250 ppm,[7]; [18],100%
same,mortality at 50 ppm,[8]; [19],50%
same,mortality at 250 ppm,[8]; [19],100%
"CCCSP(=O)(OC)SCC(C)SC (stereo not drawn) [Example 40, O-Methyl S-1-Propyl S'-2-Methylthiopropyl Dithiophosphate]",mortality at 50 ppm,[2]; [14],100%
same,mortality at 250 ppm,[2]; [14],100%
same,mortality at 50 ppm,[4]; [15],100%
same,mortality at 250 ppm,[4]; [15],100%
same,mortality at 50 ppm,[5]; [16],100%
same,mortality at 250 ppm,[5]; [16],100%
same,mortality at 50 ppm,[6]; [17],100%
same,mortality at 250 ppm,[6]; [17],100%
same,mortality at 50 ppm,[7]; [18],0%
same,mortality at 250 ppm,[7]; [18],100%
same,mortality at 50 ppm,[8]; [19],100%
same,mortality at 250 ppm,[8]; [19],100%
"CCCSP(=O)(OCC)SCCSC(C)C (stereo not drawn) [Example 3, O-Ethyl S-1-Propyl S'-2-i-Propylthioethyl Dithiophosphate]",mortality at 250 ppm,[2]; [20],85%
same,mortality at 250 ppm,[4]; [21],70%
same,mortality at 250 ppm,[7]; [22],100%
same,mortality at 250 ppm,[8]; [23],100%
same,mortality at 250 ppm,[9],100%
"CCOP(=O)(SCSCC)SCC(C)C (stereo not drawn) [Example 12, O-Ethyl S-Isobutyl S'Ethylthiomethyl Dithiophosphate]",thermal stability,[10],thermal instability
"CCCSP(=O)(OCC)SCC(C)SC(C)C (stereo not drawn) [Example 35, O-Ethyl S-1-Propyl S'-2-i-Propylthiopropyl Dithiophosphate]","S.Armyworm Mortality,%",[3],100%
same,mortality at 50 ppm,"[4]; read-out: Bean Aphids Mortality,%",50%
same,mortality at 50 ppm,"[7]; read-out: Mexican Bean Beetles Mortality,%",100%
same,mortality at 10 ppm,"[8]; read-out: Spider Mites Mortality,%",100%
same,mortality at 2.5 ppm,"[11]; read-out: Corn Rootworm Mortality,%",70%
same,"Nematode Control,%",[12],100%
"CCOP(=O)(SCC(C)SC)SC(C)C (stereo not drawn) [Example 42, O-Ethyl S-2-Propyl S-2-Methylthiopropyl Dithiophosphate]",mortality at 50 ppm,[2]; [14],0%
same,mortality at 250 ppm,[2]; [14],100%
same,mortality at 50 ppm,[4]; [24],50%
same,mortality at 250 ppm,[4]; [24],100%
same,mortality at 50 ppm,[5]; [16],20%
same,mortality at 250 ppm,[5]; [16],80%
same,mortality at 50 ppm,[6]; [17],0%
same,mortality at 250 ppm,[6]; [17],100%
same,mortality at 50 ppm,[7]; [18],100%
same,mortality at 250 ppm,[7]; [18],100%
same,mortality at 50 ppm,[8]; [19],100%
same,mortality at 250 ppm,[8]; [19],100%
"CCCSP(=O)(OCC)SCC[S+]([O-])C(C)C (stereo not drawn) [Example 8, O-Ethyl S-1-Propyl S'-2-i-Propylsulfinylethyl Dithiophosphate]",mortality at 250 ppm,[2]; [20],90%
same,mortality at 250 ppm,[4]; [21],100%
same,mortality at 250 ppm,[7]; [25],100%
same,mortality at 250 ppm,[8]; [23],95%
same,mortality at 250 ppm,[9],90%
same,"Nematode Control,% at 25 lb/acre",[12],75%
"CCCSP(=O)(OCC)SCC(CC)SC (stereo not drawn) [Example 38, O-Ethyl S-1-Propyl S'-2-Methylthiobutyl Dithiophosphate]","Mortality Produced at 50 ppm, % - Southern Army Worm",[3]; southern armyworm,80%
same,mortality at 50 ppm,"[4]; read-out: Mortality Produced at 50 ppm, % - Bean Aphids",100%
same,mortality at 50 ppm,"[6]; read-out: Mortality Produced at 50 ppm, % - Houseflies",100%
same,mortality at 50 ppm,"[7]; read-out: Mortality Produced at 50 ppm, % - Mexican Bean Beetles",10%
same,mortality at 50 ppm,"[8]; read-out: Mortality Produced at 50 ppm, % - Spider Mites",100%
same,mortality at 2.5 ppm,"[11]; read-out: Corn Rootworm Mortality, % at 2.5 ppm",40%
same,Nematodes Control % at 25 lb/acre,[12],90%
"CCCSP(=O)(OCC)SCC(C)S(C)(=O)=O (stereo not drawn) [Example 9, O-Ethyl S-1-Propyl S'-2-Methylsulfonylpropyl Dithiophosphate]",mortality at 250 ppm,[2]; [20],90%
same,mortality at 250 ppm,[4]; [21],90%
same,mortality at 250 ppm,[5]; [26],95%
same,mortality at 250 ppm,[7]; [25],100%
same,mortality at 250 ppm,[8]; [23],90%
same,mortality at 250 ppm,[9],100%
same,"Nematode Control,% at 25 lb/acre",[12],80%
CCCSP(=O)(OCC)SCCSC (stereo not drawn) [drawing 52],mortality at 560.425 g/ha,[13]; [27],72%
same,mortality at 560.425 g/ha,[13]; [28],80%
same,mortality at 560.425 g/ha,[13]; [29],89%
"CCCSP(=O)(OCC)SCCS(C)(=O)=O (stereo not drawn) [Example 7, O-Ethyl S-1-Propyl S'-(2-Methylsulfonylethyl) Dithiophosphate]",mortality at 250 ppm,[2]; [20],100%
same,mortality at 250 ppm,[4]; [21],100%
same,mortality at 250 ppm,[5]; [26],100%
same,mortality at 250 ppm,[7]; [25],100%
same,mortality at 250 ppm,[8]; [23],100%
same,mortality at 250 ppm,[9],100%
same,LD50 at 336 h,[1],> 100 mg/kg
same,"Nematode Control,% at 25 lb/acre",[12],100%
"CCOP(=O)(SCC(C)C)SCC(C)SC (stereo not drawn) [Example 37, O-Ethyl S-2-Methylpropyl S'-2-Methylthiopropyl Dithiophosphate]",mortality at 50 ppm,[2]; [14],100%
same,mortality at 250 ppm,[2]; [14],100%
same,mortality at 50 ppm,[4]; [24],10%
same,mortality at 250 ppm,[4]; [24],100%
same,mortality at 50 ppm,[5]; [16],70%
same,mortality at 250 ppm,[5]; [16],100%
same,mortality at 50 ppm,[6]; [17],45%
same,mortality at 250 ppm,[6]; [17],100%
same,mortality at 50 ppm,[7]; [18],100%
same,mortality at 250 ppm,[7]; [18],100%
same,mortality at 50 ppm,[8]; [19],60%
same,mortality at 250 ppm,[8]; [19],100%
CCCSC(C)CSP(=O)(OCC)SCCC (stereo not drawn) [drawing 54],mortality at 560.425 g/ha,[13]; [27],87%
same,mortality at 560.425 g/ha,[13]; [28],94%
same,mortality at 560.425 g/ha,[13]; [29],99%
CCOP(=S)(OCC)SCC(C)SC (stereo not drawn) [reference compound],LD50 at 336 h,[1],25 to 50 mg/kg
CCOP(=O)(SCC)SCCSCC (stereo not drawn) [reference compound],LD50 at 336 h,[1],100 mg/kg
"CCCSCCSP(=O)(OCC)SCCC (stereo not drawn) [Example 2, O-Ethyl S-1-Propyl S'-2-n-Propylthioethyl Dithiophosphate]",mortality at 250 ppm,[2]; [20],100%
same,mortality at 250 ppm,[4]; [21],90%
same,mortality at 250 ppm,[5]; [26],75%
same,mortality at 250 ppm,"[6]; read-out: Mortality, % - House Flies",100%
same,mortality at 250 ppm,[7]; [22],100%
same,mortality at 250 ppm,[8]; [23],100%
"CCOP(=S)(OCC)SCSc1ccc(Cl)cc1 [Trithion, reference compound]","Southern Army Worm Mortality, %",[3]; southern armyworm,0%
same,mortality at 20 ppm,"[6]; read-out: House Fly Spray Mortality, % (at 20 ppm)",80%
same,mortality at 100 ppm,"[7]; read-out: Mexican Bean Beetle Larvae Mortality, %",90%
"CCCSP(=O)(OCC)SCCSc1ccc(Cl)cc1 (stereo not drawn) [Example 5, O-Ethyl S-1-Propyl S'-2-p-Chlorophenylthioethyl Dithiophosphate]",mortality at 250 ppm,[2]; [20],40%
same,mortality at 250 ppm,[4]; [21],95%
same,mortality at 250 ppm,[5]; [26],10%
same,mortality at 250 ppm,[7]; [22],100%
same,mortality at 250 ppm,[8]; [23],100%
CCCSP(=O)(OCC)SCC(C)SC (stereo not drawn) [drawing 53],mortality at 560.425 g/ha,[13]; [27],84%
same,mortality at 560.425 g/ha,[13]; [28],96%
same,mortality at 560.425 g/ha,[13]; [29],96%
CCOP(=S)(OCC)SCC(C)SCC (stereo not drawn) [reference compound],LD50 at 336 h,[1],25 to 50 mg/kg
"CCCCSP(=O)(OCC)SCC(C)SC (stereo not drawn) [Example 41, O-Ethyl S-1-Butyl S'-Methylthiopropyl Dithiophosphate]",mortality at 50 ppm,[2]; [14],0%
same,mortality at 250 ppm,[2]; [14],100%
same,"Mortality Produced, % - S.Army Worm",[3]; southern armyworm,0%
same,mortality at 50 ppm,[4]; [24],60%
same,mortality at 250 ppm,[4]; [24],100%
same,mortality at 50 ppm,[5]; [16],0%
same,mortality at 250 ppm,[5]; [16],40%
same,mortality at 50 ppm,[6]; [17],0%
same,mortality at 250 ppm,[6]; [17],100%
same,mortality at 50 ppm,[7]; [18],80%
same,mortality at 250 ppm,[7]; [18],100%
same,mortality at 50 ppm,[8]; [19],100%
same,mortality at 250 ppm,[8]; [19],100%
